Consider 79 compounds from the METLIN SMRT retention time set (Domingo-Almenara et al. 2019).

Structures are written as SMILES.

The nature of the series: gradient 5% acetonitrile 3 min, to 50% in 2 min, to 85% in 15 min, held 3 min, 100 µL/min. The conditions noted are these: column: Zorbax Extend-C18 2.1 x 50 mm; eluents: water / acetonitrile, 0.1% formic acid. The gist of the method:
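Each retention time is based on an adduct peak selected computationally and verified by manual inspection. Measurements used HPLC–quadrupole time-of-flight mass spectrometry in positive and negative ionization mode on mixtures of ~100 pure standards. Chromatography ran on a Zorbax Extend-C18 column (2.1 × 50 mm, 1.8 μm) at 100 μL/min with water and acetonitrile, each containing 0.1% formic acid, and dead and dwell volumes of 40 μL and 900 μL.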
In turn, `Cn1c(N2CCCC(C(=O)NCCN3CCN(c4ccccc4)CC3)C2)cc(=O)n(C)c1=O` (centres undefined) had an RP-LC retention time of 589 s.
Under `CCOc1ccc(NC(=O)c2nc(C)oc2C)cc1` stands 884 s; under `COCC(C)(O)CNC(=O)c1ccco1` (centres undefined), 549 s; under `COCCCNC(=O)C1CCN(c2nc3ccc(-c4cccs4)nc3s2)CC1`, 801 s.
Under `CC(C)N1CCN(C(=O)c2cn(-c3cc(N4CCSCC4)ncn3)cn2)CC1` stands 596 s; under `Cc1noc(C)c1CC(=O)N1CCc2nn(CC3CC3)c(=O)n2CC1`, 626 s; under `COCCn1cc(CCNC(=O)Nc2cc(Cl)cc(Cl)c2)c2cccnc21`, 893 s.
Under `Clc1cc(Cl)cc(-c2ccc(CNCc3ccccn3)o2)c1` stands 742 s.
The compound `CC(C)n1ccc(-c2nnc(NC(=O)COc3ccc(Cl)cc3Cl)o2)n1` came in with an RP-LC retention time of 793 s.
For the compound `CN1C(=O)C2(c3ccccc31)C(C(=O)Nc1c(F)c(F)c(F)c(F)c1F)CC1CCCN12` (centres undefined), the RP-LC retention time came out at 653 s.
Turning to `Cc1nnc(-c2ccc(S(=O)(=O)N3CCN(c4ccccn4)CC3)o2)o1`, the RP-LC retention time stood at 601 s.
`COc1cccc(NC(=O)C2CCN(S(=O)(=O)c3c(C)nn(-c4ccccc4)c3C)CC2)c1` gave an RP-LC retention time of 940 s.
Compound `CC(C(=O)Nc1nc(-c2ccccc2)cs1)N1C(=O)C2C3C=CC(C3)C2C1=O` (centres undefined) showed an RP-LC retention time of 955 s.
The value for `COc1ccc(N2CCN(C(=O)CN3CCN(Cc4ccccc4)C3=O)CC2)cc1` was 714 s; that for `COc1ccccc1-c1nnc(C2CCN(C(=O)c3ccccc3)CC2)o1` was 741 s.
In the case of `Fc1ccc(Cn2cccc2-c2nc(-c3ccncc3)no2)cc1`, the RP-LC retention time turned out to be 1100 s.
Under `Cc1cc(-c2ccc(S(=O)(=O)N3CCC(C(=O)NC4CCCCCC4)CC3)o2)n[nH]1` stands 852 s.
On to `COC(=O)c1cc(OC)c(OC)cc1NC(=O)C1=Cc2cc(OC)ccc2OC=C1`, for which the RP-LC retention time turned out to be 829 s.
The compound `CC1CN(c2ccc(F)cc2)c2nc3c(c(=O)n(CC(=O)O)c(=O)n3C)n2C1` (centres undefined) yielded an RP-LC retention time of 729 s.
Take `Cc1ccc(Cn2c(N3CCCC(C(=O)NCC(C)C)C3)nc3ccsc3c2=O)cc1` (centres undefined): the RP-LC retention time is 955 s.
The value for `Cc1ccc(C)c(N2C(=O)CN(S(C)(=O)=O)CC2(C)C(=O)NCc2ccc(Cl)cc2)c1` (centres undefined) was 889 s; that for `CCNC(=O)c1[nH]c2ccc(F)cc2c1N1CCCC1=O` was 676 s; that for `CN(C)C1CCc2[nH]c3c(F)cc(F)cc3c2C1` (centres undefined) was 685 s.
Under `CCN1C(=O)c2cccnc2Sc2cc(NC(=O)c3ccc(OC)cc3)ccc21` stands 806 s; under `CC(C)c1ccc(-c2ccnc3c(C(=O)N4CCN(c5ccccn5)CC4)cnn23)cc1`, 710 s; under `CCSc1ccc(-c2cccc(NC(=O)CC)c2)nn1`, 787 s.
Under `CCN(CCCNC(=O)C1CCN(c2nccc3c(C)nn(C)c23)CC1)c1ccccc1` stands 574 s.
The compound `COCC(=O)N1CCC2(CC1)NC(=O)c1ccccc1O2` had an RP-LC retention time of 610 s.
The value for `O=C(Nc1ccc(Cl)cc1)c1csc(-c2ccc(N3CCCC3)nc2)n1` was 837 s; that for `Cc1ccc(NC(=O)N2CCC(N3CCN(Cc4ccccc4)C3=O)CC2)cc1` was 822 s; that for `CCN1CCCC1CN(CC(=O)N1CCNCC1)S(=O)(=O)c1cc(Cl)ccc1OC` (centres undefined) was 573 s.
In turn, `CC(=O)c1cccc(NC(=O)N2C[C@H](c3nc(-c4ccccc4)no3)[C@@H](C)C2)c1` came in with an RP-LC retention time of 938 s.
The value for `COc1ccc(NC(=O)Cn2ccnc2-c2ccnc(N3CCSCC3)c2)cc1OC` was 619 s; that for `CCN1C(=O)c2cccnc2Sc2cc(NC(=O)C3CCCC3)ccc21` was 816 s.
The value for `COc1ccc(C2CCCCCN2S(C)(=O)=O)cc1` (centres undefined) was 932 s; that for `CC(C)Cn1c(=O)c2ccccc2n(Cc2nc(-c3ccc(Br)cc3)no2)c1=O` was 1300 s; that for `COc1ccccc1NS(=O)(=O)c1ccc(-c2c(C)noc2C)cc1` was 924 s.
`O=C(NC1CC1)C1CCN(c2nc3ccsc3c(=O)n2Cc2ccc(F)cc2)CC1` returned an RP-LC retention time of 768 s.
On to `Cc1cc2c(c(=O)n(-c3ccc(F)cc3)c(=O)n2CC(=O)Nc2ccc(F)c(Cl)c2)n1C`, for which the RP-LC retention time is 854 s.
With `CCCCNC(=O)c1nc(Nc2ccc(F)cc2)c2ccccc2n1`, the RP-LC retention time turned out to be 796 s.
The compound `O=C(Nc1nc2c(s1)CN(C(=O)Nc1ccc(Cl)c(Cl)c1)CC2)c1cnccn1` had an RP-LC retention time of 811 s.
`Cc1cc(F)ccc1N1C(=O)CN(S(C)(=O)=O)CC1(C)C(=O)NCc1ccccc1` (centres undefined) came in with an RP-LC retention time of 804 s.
The value for `Cc1ccc(NC(=O)c2ccc3[nH]c4c(c3c2)CN(C(=O)C2CCC2)CC4)cc1` was 864 s; that for `Cc1oc(-c2ccccc2)nc1Cn1ccn2nc(-c3cccs3)cc2c1=O` was 1060 s; that for `CCOc1ccc(S(=O)(=O)N(C)C2CCc3nn(CC4CC4)c(=O)n3CC2)cc1` (centres undefined) was 804 s.
In turn, `COc1ccc(-c2noc(CSc3nccn3-c3ccc(C)cc3)n2)cc1` returned an RP-LC retention time of 926 s.
`O=c1n(Cc2cccc(Cl)c2)nc2ccc(S(=O)(=O)N3CCCCC3)cn12` had an RP-LC retention time of 989 s.
Under `Cc1noc(C)c1CN1CCN(C(=O)Cc2ccccc2Cl)CC1` stands 563 s; under `CC(C)(C)NC(=O)N1CCC(CNC(=O)CSCc2ccccc2)CC1`, 735 s.
Under `CNC(=O)C1CCCN(c2nc3ncn(CC(=O)Nc4cc(F)cc(F)c4)c(=O)c3s2)C1` (centres undefined) stands 681 s; under `Cc1ccc(NC(=O)C(C)Oc2cc(C(F)(F)F)c3c(C)nn(C)c3n2)cc1C` (centres undefined), 586 s; under `CCOC(=O)COc1cc(-c2ccc(C)cc2)nc2ccc(NC(=O)C3CCCC3)cc12`, 854 s.
Under `COCCN1CC2(CCN(S(=O)(=O)c3cccc(Cl)c3)CC2)C1c1ccccc1` (centres undefined) stands 730 s.
`CS(=O)(=O)N(C1CCOCC1)C1CN(C(=O)c2cc3ccccc3[nH]2)C1` showed an RP-LC retention time of 685 s.
The value for `CCN(CCN(C)C)c1ccc(C(=O)O)cc1NS(=O)(=O)c1ccccc1` was 610 s; that for `N#Cc1ccc(C(=O)NCC(=O)N2CCCc3ccccc32)cc1` was 773 s; that for `COc1ccc(S(=O)(=O)NC2CCN(c3ccc(=O)n(CC4CC4)n3)C2)cc1Cl` (centres undefined) was 800 s.
Under `O=C(NCc1ccc2c(c1)OCO2)C(=O)NCC1CCN(S(=O)(=O)C2CC2)CC1` stands 711 s; under `CN(CCc1noc(COc2ccc(Cl)cc2)n1)C(=O)c1ccco1`, 856 s; under `Cc1c(-c2noc(-c3ccc4c(c3)OCO4)n2)nnn1Cc1cccc(F)c1`, 990 s.
In turn, `CS(=O)(=O)N(CC(=O)NCc1ccc2c(c1)OCCCO2)Cc1ccc(Cl)cc1` came in with an RP-LC retention time of 889 s.
Consider `O=C(N[C@@H](Cc1c[nH]c2ccccc12)C(=O)O)c1cc2ccccc2o1`, for which the RP-LC retention time came to 769 s.
For the compound `CCc1ccc(S(=O)(=O)NCCc2csc(-c3cccnc3)n2)s1`, the RP-LC retention time worked out at 734 s.
The value for `Cc1ccccc1-c1nc2cnccn2c1NCCC(=O)NCc1ccco1` was 624 s; that for `COc1ccc(-n2c(=O)n(C)c(=O)c3cc(C(=O)Nc4cccc(Cl)c4)cnc32)cc1` was 1010 s.
`Cc1cccc(N2CCN(c3ccc4nnc(CCc5nc(-c6ccccc6C)no5)n4n3)CC2)c1` registered an RP-LC retention time of 1220 s.
The value for `COc1ccc(C(=O)N2CCC(n3nc(-c4ccsc4)ccc3=O)CC2)cc1` was 797 s; that for `CCCOc1nc2ccccc2nc1N1CCCC(C(=O)NCc2ccco2)C1` (centres undefined) was 1100 s.
With `Cn1c(=O)c2cc(C(=O)Nc3ccccc3)cnc2n(-c2ccccc2)c1=O`, the RP-LC retention time is 862 s.
Under `Cc1ccc2c(c1)N(Cc1ccccc1C)N=C(C(=O)N1CCCCC1)S2(=O)=O` stands 1040 s; under `Cc1nc(-c2cc(S(=O)(=O)N(C)C3CCCCC3)c(C)s2)sc1C`, 1320 s; under `O=C(CN1CCN(c2nccn2-c2ccccc2F)CC1)Nc1ccc(F)cc1F`, 562 s.
For the compound `Cc1ccccc1CNC(=O)CCc1c(-c2ccc(Br)cc2)nc2ccccn12`, the RP-LC retention time was 722 s.
Compound `CCn1ccc(-c2nc(-c3ccc4c(c3)ncn4CCC(=O)N3CCCC3)no2)n1` registered an RP-LC retention time of 642 s.
For the compound `O=C(Nc1cc(-c2ccsc2)no1)C1CCCC1`, the RP-LC retention time was found to be 918 s.
The value for `CC(C)NC(=O)Cn1nc2c3cc(-c4ccc(C(C)C)cc4)nn3ccn2c1=O` was 911 s.
The value for `CCCCNc1nc(-c2ccccc2F)nc2ccccc12` was 730 s; that for `Cc1ccc(NS(=O)(=O)c2cc(-c3[nH]ncc3C(=O)N3CCOCC3)oc2C)c(C)c1` was 721 s.
Under `CCCN1C(=O)CCc2cc(NS(=O)(=O)c3ccc(Cl)c(Cl)c3)ccc21` stands 983 s.
